Key:
Assay type in all cases: cell-based
[1] = system: MYB mRNA; test: Gene panel canonical junction qPCR assay, decrease in CJ mRNA, Table 3; conditions: decrease in canonical junction (CJ) mRNA, gene panel qPCR, Table 3
Outline: (§1)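 Cells: A673 or K562; 24 h compound exposure, 37 °C, 5% CO2; 11-pt 3-fold series from 10 uM final; DMSO ≤0.25%. Lysate → cDNA → qPCR with junction-spanning primers/probe for CJ transcript. ΔCt vs housekeeper, ΔΔCt vs DMSO, 2^(−ΔΔCt), % response, 4PL → IC50.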

[2] = system: SMN2 mRNA; test: as above; conditions: decrease in canonical junction (CJ) mRNA, gene panel qPCR, Table 3
Outline: as §1

[3] = system: HTT mRNA; test: as above; conditions: decrease in canonical junction (CJ) mRNA, gene panel qPCR, Table 3
Outline: as §1

[4] = system: MYB mRNA; test: Splicing RT-qPCR assay, canonical (CJ) and alternative (AJ) junction mRNA, K562 cells; conditions: Homo sapiens, K562.3 cells, 24 hours; for AC50: read-out: MYB AJ (AC50, increase in AJ mRNA); for IC50: read-out: MYB CJ (IC50, decrease in CJ mRNA)
Protocol: (§2) Compounds described herein were used to modulate RNA transcript abundance in cells. The expression of a target mRNA was measured by detecting the formation of an exon-exon junction in the canonical transcript (CJ). A compound mediated exon-inclusion event was detected by observing an increase in formation of a new junction with an alternative exon (AJ). Real-time qPCR assays were used to detect these splicing switches and interrogate the potency of various compounds towards different target genes. A high-throughput real time quantitative PCR (RT-qPCR) assay was developed to measure these two isoforms of the mRNA (CJ and AJ) for exemplary genes, such as HTT, SMN2, and MYB, together with a control housekeeping gene, GAPDH or GUSB or PPIA, used for normalization. Briefly, the A673 or K562 cell line was treated with various compounds described herein (e.g., compounds of Formula (I)). After treatment, the levels of the HTT, MYB, or SMN2 mRNA targets were determined from each sample of cell lysate by cDNA synthesis followed by qPCR.
(§3) • Cells-to-CT 1-step kit: ThermoFisher A25602, Cells-to-CT lysis reagent: ThermoFisher 4391851C, TaqMan™ Fast Virus 1-Step Master Mix: ThermoFisher 4444436 • GAPDH: VIC-PL, ThermoFisher 4326317E (Assay: Hs99999905_m1)—used for K562/suspension cell lines • GUSB: VIC-PL, ThermoFisher 4326320E (Assay: Hs99999908_m1)—used for K562/suspension cell lines • PPIA: VIC-PL, ThermoFisher 4326316E (Assay: Hs99999904_m1)—used for A673/adherent cell lines
(§4) The K562 cell line was cultured in IMDM with 10% FBS. For K562, cells were diluted with full growth media and plated in either a 96-well plate (50,000 cells in 50 uL media per well) or a 384-well plate (8,000-40,000 cells in 45 uL media per well). An 11-point 3-fold serial dilution of the compounds were made in DMSO then diluted in media in an intermediate plate. Compound was transferred from the intermediate plate to the cell plate with the top dose at a final concentration of 10 uM in the well. Final DMSO concentration was kept at or below 0.25%. Final volume was 100 uL for 96-well plate and 50 uL for 384-well plate. The cell plate was then placed in an incubator at 37° C. with 5% CO2 for 24 hours.
(§5) The cells were then gently washed with 50 uL-100 uL cold PBS before proceeding to addition of lysis buffer. 30 uL-50 uL of room temperature lysis buffer with DNAse I (and optionally RNAsin) was added to each well. Cells were shaken/mixed thoroughly at room temperature for 5-10 minutes for lysis to take place and then 3 uL-5 uL of room temperature stop solution was added and wells were shaken/mixed again. After 2-5 minutes, the cell lysate plate was transferred to ice for RT-qPCR reaction setup. The lysates could also be frozen at −80° C. for later use.
(§6) In some cases, a direct lysis buffer was used. An appropriate volume of 3× lysis buffer (10 mM Tris, 150 mM NaCl, 1.5%-2.5% Igepal and 0.1-1 U/uL RNAsin, pH 7.4) was directly added to either K562 or A673 cells in media and mixed by pipetting 3 times. The plates were then incubated at room temperature with shaking/rocking for 20-50 minutes to allow for lysis to take place. After this time, the cell lysate plate was transferred to ice to set up for the RT-qPCR reactions. The lysates could also be frozen at −80° C. for later use.
(§7) To set up 10 uL RT-qPCR reactions, cell lysates were transferred to 384-well qPCR plates containing the master mix according to the table below. The plates were sealed, gently vortexed, and spun down before the run. The volumes were adjusted accordingly in some instances where the reaction was carried in 20 uL. The table below summarizes the components of the RT-qPCR reactions:
(§8) The RT-qPCR reaction was performed using a QuantStudio (ThermoFisher) under the following fast cycling conditions. All samples and standards were analyzed at least in duplicate. In some instances, bulk room temperature (RT) step of 5-10 minutes was completed for all plates before proceeding with qPCR. […]

[5] = system: HTT mRNA; test: as above; conditions: Homo sapiens, K562.3 cells, 24 hours; for AC50: read-out: HTT AJ (AC50, increase in AJ mRNA); for IC50: read-out: HTT CJ (IC50, decrease in CJ mRNA)
Protocol: as §2, §3, §4, §5, §6, §7, §8

[6] = system: SH-SY5Y (human neuroblastoma) cells; test: Cell viability, Cell Titer Glo 2.0 assay; conditions: read-out: Viability SHSY5Y.3 GI50
Outline: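 CellTiter-Glo 2.0 luminescence read-out after 72 h compound exposure (37 °C, 5% CO2); medium-only wells as blank. DMSO 0.1% final.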

[7] = system: MYB mRNA; test: Splicing RT-qPCR assay (THP), Table 2A; conditions: Table 2A (THP); for AC50: AJ mRNA increase, read-out: MYB AJ (increase in alternative junction mRNA, AC50); for IC50: CJ mRNA decrease, read-out: MYB CJ (decrease in canonical junction mRNA, IC50)

Structure (SMILES)	IC50 [1]	IC50 [2]	IC50 [3]	IC50 [4]	IC50 [5]	GI50 [6]	IC50 [7]	AC50 [4]	AC50 [5]	AC50 [7]
CCNC1CCN(c2cc(F)c(C(=O)Nc3cc(F)c4nc(C)cn4c3)c3[nH]ncc23)CC1 [Compound 174, 4-[4-(ethylamino)-1-piperidyl]-6-fluoro-N-(8-fluoro-2-methyl-imidazo-[1,2-a]pyridin-6-yl)-1H-indazole-7-carboxamide]	100 to 1000 nM	< 100 nM	1000 to 10000 nM	100 to 1000 nM	1000 to 10000 nM	100 to 1000 nM	100 to 1000 nM	100 to 1000 nM	1000 to 10000 nM	< 100 nM
CCN[C@H]1CCN(c2cc(OC)c(C(=O)Nc3cc(F)c4nc(C)cn4c3)c3nn(C)cc23)C1 [Compound 146]	> 10000 nM	1000 to 10000 nM	> 10000 nM	> 10000 nM	> 10000 nM	> 10000 nM	> 10000 nM	> 10000 nM	> 10000 nM	> 10000 nM
CN[C@H]1CCN(c2c(OC)cc(C(=O)Nc3cc(F)c4nc(C)cn4c3)c3nn(C)cc23)C1 [Compound 137, N-(8-fluoro-2-methyl-imidazo[1,2-a]pyridin-6-yl)-5-methoxy-2-methyl-4-[(3S)-3-(methylamino)pyrrolidin-1-yl]indazole-7-carboxamide]	> 10000 nM	100 to 1000 nM	> 10000 nM	> 10000 nM	> 10000 nM	1000 to 10000 nM	> 10000 nM	> 10000 nM	> 10000 nM	> 10000 nM
CN[C@@H]1CCN(c2ccc(C(=O)Nc3cc(F)c4nn(C)cc4c3)c3nn(C)cc23)C1 [Compound 140, N-(7-fluoro-2-methyl-indazol-5-yl)-2-methyl-4-[(3R)-3-(methylamino)pyrrolidin-1-yl]indazole-7-carboxamide]	100 to 1000 nM	< 100 nM	1000 to 10000 nM	100 to 1000 nM	1000 to 10000 nM	1000 to 10000 nM	100 to 1000 nM	100 to 1000 nM	1000 to 10000 nM	100 to 1000 nM
CCN[C@H]1CCN(c2cc(O)c(C(=O)Nc3cc(F)c4nc(C)cn4c3)c3nn(C)cc23)C1 [Compound 143, 4-[(3S)-3-(ethylamino)pyrrolidin-1-yl]-N-(8-fluoro-2-methyl-imidazo[1,2-a]pyridin-6-yl)-6-hydroxy-2-methyl-indazole-7-carboxamide]	< 100 nM	< 100 nM	1000 to 10000 nM	< 100 nM	1000 to 10000 nM	100 to 1000 nM	< 100 nM	< 100 nM	1000 to 10000 nM	< 100 nM

The next lines start with results.

IC50 [1]	IC50 [2]	IC50 [3]	IC50 [4]	IC50 [5]	GI50 [6]	IC50 [7]	Structure (SMILES)	AC50 [4]	AC50 [5]	AC50 [7]
> 10000 nM	> 10000 nM	1000 to 10000 nM	> 10000 nM	1000 to 10000 nM	1000 to 10000 nM	1000 to 10000 nM	Cc1cn2cc(NC(=O)c3ccc(N4CCNCC4)c4cc[nH]c34)cc(F)c2n1 [Compound 213, N-(8-fluoro-2-methyl-imidazo[1,2-a]-pyridin-6-yl)-4-piperazin-1-yl-1H-indole-7-carboxamide]	> 10000 nM	> 10000 nM	> 10000 nM
100 to 1000 nM	< 100 nM	1000 to 10000 nM	100 to 1000 nM	1000 to 10000 nM	1000 to 10000 nM	100 to 1000 nM	Cc1cn2cc(NC(=O)c3ccc(N4CC[C@H](NCC(C)(C)O)C4)c4cn(C)nc34)cc(F)c2n1 [Compound 132, N-(8-fluoro-2-methyl-imidazo[1,2-a]pyridin-6-yl)-4-[(3S)-3-[(2-hydroxy-2-methylpropyl)amino]-pyrrolidin-1-yl]-2-methyl-indazole-7-carboxamide]	100 to 1000 nM	> 10000 nM	100 to 1000 nM
1000 to 10000 nM	1000 to 10000 nM	> 10000 nM	1000 to 10000 nM	> 10000 nM	1000 to 10000 nM	> 10000 nM	COc1c(NC(=O)c2ccc(N3CCNCC3)c3cc[nH]c23)cn2cc(C)nc2c1F [Compound 212, N-(8-fluoro-7-methoxy-2-methyl-imidazo-[1,2-a]pyridin-6-yl)-4-piperazin-1-yl-1H-indole-7-carboxamide]	> 10000 nM	> 10000 nM	> 10000 nM
100 to 1000 nM	< 100 nM	1000 to 10000 nM	100 to 1000 nM	1000 to 10000 nM	1000 to 10000 nM	100 to 1000 nM	Cc1cn2cc(NC(=O)c3ccc(N4CCC5NCCC5C4)c4cn(C)nc34)cc(F)c2n1 (centres unmarked) [Compound 169, N-(8-fluoro-2-methyl-imidazo[1,2-a]-pyridin-6-yl)-2-methyl-4-(octahydro-pyrrolo[3,2-c]pyridin-5-yl)indazole-7-carboxamide 2,2,2-trifluoroacetate]	100 to 1000 nM	1000 to 10000 nM	< 100 nM
< 100 nM	< 100 nM	1000 to 10000 nM	< 100 nM	1000 to 10000 nM	< 100 nM	< 100 nM	CCNC1CCN(c2cc(F)c(C(=O)Nc3cn4cc(C)nc4c(F)c3OC)c3[nH]ncc23)CC1 [Compound 173, 4-[4-(ethylamino)-1-piperidyl]-6-fluoro-N-(8-fluoro-7-methoxy-2-methyl-imidazo[1,2-a]pyridin-6-yl)-1H-indazole-7-carboxamide]	< 100 nM	1000 to 10000 nM	< 100 nM
> 10000 nM	> 10000 nM	> 10000 nM	> 10000 nM	> 10000 nM	> 10000 nM	> 10000 nM	Cc1cn2cc(C(=O)Nc3c(F)cc(N4CCNCC4)c4cn[nH]c34)cc(F)c2n1 [Compound 267]	> 10000 nM	> 10000 nM	> 10000 nM

Source: patent publication US20260285853A1, “COMPOUNDS AND METHODS FOR MODULATING SPLICING” (REMIX THERAPEUTICS INC., priority 2023, published 2026)
